These results are taken from patent publication US11046659B2, “1,2,3-triazole derivative and insecticide and acaricide containing said derivative as active ingredient” (HOKKO CHEMICAL INDUSTRY CO., LTD., priority 2015, dated 2021).

Structures are written as SMILES.

The test concerns Tetranychus urticae. The experiment in a line: Tetranychus urticae control test. The format is in vivo. Conditions: diluted emulsifiable concentrate 500 ppm sprayed on bean seedlings; female adults; eight days after the treatment; 25° C. How it is done: Test Example-4: Tetranychus urticae Control Test
Ten female adults of Tetranychus urticae were released on each of bean seedlings grown in a plastic cup. One day after the release, the bean seedlings were placed on a turntable, and 30 mL of a diluted emulsifiable concentrate (500 ppm) prepared according to Formulation Example 3 was uniformly sprayed thereon by means of a spray gun. After the treatment, the seedlings were placed in a constant temperature chamber at 25° C. (with lighting for 16 hours). Eight days after the treatment, the number of surviving parasitic insects was investigated, and the preventive value (%) was calculated according to the following calculating formula (b). Test was conducted in duplicate. Preventive value (%)={1−(number of parasitic insects on investigation day in treatment plot/number of parasitic insects on investigation day in non-treatment plot)}×100 Formula (b): […]

As to `CCS(=O)(=O)c1cc(C(F)(F)F)cnc1-n1cc(-c2ccc(C(F)(F)F)cc2)nn1` [1-834], the preventive value is reported as at least 80%.
